US20240245677A1, “SELECTED COMPOUNDS FOR TARGETED DEGRADATION OF BRD9” (C4 THERAPEUTICS, INC., priority 2021, published 2024)

Key:
[1] = Mouse Hepatocyte Stability Assay; type: in vitro ADME; details: CD-1, cryopreserved hepatocytes
Procedure: (§1) The metabolic stability of Compound 1 was evaluated using cryopreserved hepatocytes from mice, rats, dogs, cynomolgus monkeys, and humans.
(§2) 50 μL of 1 mM intermediate solutions for each test compound was prepared by adding 5 μL of 10 mM stock solution to 45 μL of a 1:1 mixture of water and acetonitrile. A 2 μM working stocks for each test compound were prepared in incubation media, InvitroGRO™ KHB (Bio IVT, Westbury, NY, USA), by adding 2 μL of 1 mM intermediate stock to 998 μL of incubation media.
(§3) To thaw the hepatocytes, InvitroGRO™ HT thawing medium (BioIVT, Westbury, NY, USA) was prewarmed to 37° C., and 48 mL of warmed thawing medium was transferred to a sterile 50 mL conical tube. The hepatocyte vial was removed from the liquid nitrogen Dewar, and gently thawed in a water bath at 37° C. for 1-2 minutes, then the contents of the vial were emptied into a conical tube with prewarmed InvitroGRO HT medium. 1 mL of prewarmed InvitroGRO HT medium was added to each emptied hepatocyte vial to resuspend any remaining cells, and the contents were pipetted into the hepatocyte suspension. The tube containing the hepatocyte suspension was centrifuged at 50*g for 5 minutes. The supernatant was removed carefully, and the remaining pellet was resuspended by adding 1 mL of incubation media, InvitroGRO KHB, and gently shaking until there were no clumps.
(§4) Cell viability was determined using the trypan blue method. 25 μL of hepatocyte cell suspension was added to a trypan blue (TB) solution (containing 775 μL InvitroGRO KHB and 200 μL of Trypan Blue). Cell count was taken using a hemacytometer.
(§5) For mouse hepatocytes, 200 μL of hepatocytes (0.8×10^6 cells/mL) were added to the wells of a 48 well plate (Catalog No. 92048, TPP Techno Plastic Products AG, Trasadingen, Switzerland) and pre-incubated for 30 minutes at 37° C. For rat, dog, monkey, […], 200 μL of hepatocytes (2×10^6 cells/mL) were added to the wells of a 48 well plate (Catalog No. 92048, TPP Techno Plastic Products AG, Trasadingen, Switzerland) and pre-incubated for 30 minutes at 37° C.
(§6) For all species of hepatocytes, once the pre-incubation period was complete, 200 μL of 2 μM working stock of test compound was added to the wells of the plate, and the plate was vortexed on a Vibramax™ 100 (P/N 544-21200-00, Heidolph Instruments GmbH & Co. KG, Schwabach, Germany) at 500 rpm in a 37° C. CO2 incubator (Model No. 51026280, ThermoFisher Scientific, Waltham, MA, USA). At each time point of 0, 15, 30, 60, 90, and 120 minutes, 50 μL of incubation mixture was precipitated with 200 μL of acetonitrile containing internal standard.
(§7) At the end of the experiment, the samples were centrifuged at 4000 rpm for 10 minutes. The supernatant was collected and diluted with an equal amount of water, and vortexed for 5 minutes at 900 rpm in MixMate® (Model No. 5353, Eppendorf SE, Hamburg, Germany).
(§8) The supernatant samples were submitted for LC-MS/MS analysis.
(§9) Calculations of the results included the following: […]

[2] = tested on: cryopreserved hepatocytes from CD-1 mice; experiment: Mouse Hepatocyte Stability Assay; type: in vitro ADME
Procedure: as §1, §2, §3, §4, §5, §6, §7, §8, §9

[3] = Crystallization by vapor diffusion; type: physicochemical
Procedure: Based on approximate solubility results, about 20 mg of Compound 1 free form Pattern E was dissolved in the minimal amount of good solvent in 2 mL glass vial without lid. Then the 2 mL lid less vial was placed to 8 mL vial. To the 8 mL vial was added anti-solvent. Then the 8 mL vial was capped and placed at ambient condition. Precipitates were collected by centrifugation filtration through a 0.45 μm nylon membrane filter at 14,000 rpm for 5 min. Solid parts (wet cakes) were investigated by XRPD.

In the case of COc1cc(-c2cn(C)c(=O)c(C)c2C)cc(OC)c1CN1CC[C@H](N2CCN(c3ccc(N[C@H]4CCC(=O)NC4=O)cc3F)CC2)C(F)(F)C1 [Compound 1, (S)-3-((4-(4-((S)-1-(2,6-dimethoxy-4-(1,4,5-trimethyl-6-oxo-1,6-dihydropyridin-3-yl)benzyl)-3,3-difluoropiperidin-4-yl)piperazin-1-yl)-3-fluorophenyl)amino)-piperidine-2,6-dione], the half-life at 1 µM [1] was greater than 120 min, the hepatocyte CLint at 1 µM ([1]; read-out: CL int cells) was 4.26 µL/min/1e6 cells and the “CLh int in vivo” value [2] was 44.94 mL/min/Kg body wt. For the same compound, the “CLhb scaled well stirred” value [2] was 30.0 mL/min/kg body wt, the Comments ([3]; vapor diffusion, 1,4-Dioxane/50, anti-solvent MTBE/600) was “Gum-like sample” and the Comments ([3]; vapor diffusion, 2-MeTHF/120, anti-solvent MTBE/1080) was “Gum-like sample”. For the same compound, the Comments ([3]; vapor diffusion, THF/50, anti-solvent MTBE/600) was “Gum-like sample”.
